Tests used:
RLY07 cells = assay: growth of RLY07 cells expressing the inactive, point-mutated CMV protease (toxicity control); assay type: cell-based, S. cerevisiae
Protocol: (§1) RLY07 cells transformed with the different TRP1-M constructs and a plasmid encoding the CMV protease or the empty vector were inoculated in 3 ml of 2% galactose -ura -leu medium and grown at 30° C. to OD600 1. They were washed with 5 ml H2O and resuspended in 2% galactose -ura -leu -trp medium supplemented with 10% glycerol (=growth selection medium, glycerol promotes CMV protease dimerisation and subsequent proteolytic activity) and diluted to a start OD600 0.01. For the experiments with the coxackievirus 3C protease, preculture medium was 2% glucose -ura -leu, assay medium was 2% glucose -ura -leu trp, and inoculation OD600 0.001. At time zero, assay cultures at the aforesaid start OD600 were distributed in 96-well microtiter plates, with a volume of 150 μl per well, and incubated without shaking at 30° C. At the time points indicated in the “results” section, plates were shaken to resuspend cells before being submitted to light scattering measurement at 595 nm in a Tecan Genios reader for determining cell density.
CMV protease inhibitors BI31 and BI36 (Boeringher Ingelheim, Quebec) were dissolved in DMSO and added to the assay cultures at time zero of the growth assay. Final DMSO concentration was 1%. […]

CMV protease [1] = target: T1, CMV protease (Human cytomegalovirus, UniProt P16753); assay: yeast growth selection assay: RLY07 cells co-expressing Trp1(194)-M substrate and CMV protease; assay type: cell-based; set-up: The CMV protease gene encoding amino acids 1-256 of the 75 kDa precursor was obtained by PCR from CMV infected MRC5 human cells; expressed in transfected cells; host or cells: Saccharomyces cerevisiae RLY07 (pdr5Δ snq2Δ yor1Δ); Protease on CEN4-ARS1 plasmid pMH51 under the GAL1 promoter; conditions: for effect of increasing concentrations on cell proliferation: concentration series, active protease, ~2 days at 30° C., 96-well plates
Protocol: as §1
CMV protease inhibitors BI31 and BI36 (Boeringher Ingelheim, Quebec) were dissolved in DMSO and added to the assay cultures at time zero of the growth assay. Final DMSO concentration was 1%.
RLY07 cells co-expressing Trp1^194-M substrate and the CMV protease were incubated with a concentration series of BI31 and BI36 in 96-well microtiter plates and cultivated under selective conditions. […] Importantly, despite this toxicity BI31 still stimulates growth of cells expressing the active protease (triangles). For example, at 50 μM cell density is multiplied by a factor 4 despite 25% toxicity.

[2] = target: Trp1(194)-M (long): yeast Trp1p with the 39 amino acid CMV M-site cleavage sequence inserted after Gly194 (Saccharomyces cerevisiae; human cytomegalovirus) (UniProt P00912); assay: cell-based or functional assay
[3] = target: Trp1(194)-M (short): yeast Trp1p with the 13 amino acid CMV M-site cleavage sequence inserted after Gly194 (Saccharomyces cerevisiae; human cytomegalovirus) (UniProt P00912); assay: cell-based or functional assay
[4] = target: Trp1-2C/3A substrate: yeast Trp1p with the 13 amino acid coxsackievirus B3 2C/3A cleavage sequence inserted after Gly194 (Saccharomyces cerevisiae; coxsackievirus B3) (UniProt P00912); assay: cell-based or functional assay
CMV protease [5] = target: T1, CMV protease; assay: Western blot of Trp1(194)-M substrate cleavage by CMV protease in yeast; assay type: cell-based; set-up: The CMV protease gene encoding amino acids 1-256 of the 75 kDa precursor was obtained by PCR from CMV infected MRC5 human cells; expressed in transfected cells; host or cells: Saccharomyces cerevisiae RLY07; Protease on plasmid pMH51 under the GAL1 promoter
Protocol: Yeast whole cell extracts were prepared as described by Burke et al. (Burke, Dawson et al. 2000). Proteins were separated by SDS-PAGE and Western blot analysis was performed according to standard procedures (Ausubel et al., 2003, Current Protocols in Molecular Biology). An HA-monoclonal antibody from Sigma (clone 3F10) was used at a concentration of 30 ng/ml to detect expression of TRP1(194)-M.
The Western blot was performed to provide biochemical evidence for inhibition of cleavage of CMV protease by compound BI36 (FIG. 5B). […] As in the Western blot on FIG. 3C, unfortunately no cleavage products could be detected.

[6] = target: T2, Trp1(194)-M with HA tags at both the N-terminus and the C-terminus, P00912
T2 chain: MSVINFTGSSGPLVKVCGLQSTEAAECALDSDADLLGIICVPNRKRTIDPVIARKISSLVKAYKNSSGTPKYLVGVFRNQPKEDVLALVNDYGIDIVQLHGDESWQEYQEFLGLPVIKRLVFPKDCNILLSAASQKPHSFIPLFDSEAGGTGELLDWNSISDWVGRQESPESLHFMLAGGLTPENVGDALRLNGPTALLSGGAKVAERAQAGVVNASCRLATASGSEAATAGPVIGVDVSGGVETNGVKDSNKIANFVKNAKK

[7] = target: point-mutated Trp1(194)-M (A→E) substrate with HA tags, as blotted, P00912

CN(Cc1ccc(C(F)(F)F)cc1)C(=O)N1C(=O)C[C@@H]1CSc1ncccn1 [BI31]
toxicity (RLY07 cells; 50 μM): 25%
toxic effect on cells (decrease of cell proliferation) (RLY07 cells; increasing concentrations, cells expressing inactive protease): dose-dependent toxic effect
factor by which cell density is multiplied (CMV protease [1]; 50 μM, cells expressing the active protease): 4
effect of increasing concentrations on cell proliferation (CMV protease [1]): dose-dependent increase of cell proliferation

human cytomegalovirus (CMV) protease, amino acids 1-256 of the 75 kDa precursor (from UniProt P16753 1-256) (enzyme)
proliferation reduction in medium lacking tryptophan for 38 h [2]: 85%
OD600 of co-expressing RLY07 cells in liquid selective medium after 36 hours, against control cells with an empty plasmid instead of the protease plasmid [3]: 35%
proliferation reduction in medium lacking tryptophan for 38 h (FIG. 3B, lanes 1, 2) [3]: 35%

cysteine protease 3C from coxsackievirus B3 (from UniProt P03313 1541-1723) (enzyme)
cell growth in selective medium lacking tryptophan after 27 h at 30° C., against cells expressing only the substrate [4]: 60%

CN(Cc1ccc([N+](=O)[O-])cc1)C(=O)N1C(=O)C[C@@H]1CSc1nnnn1C [BI36]
inhibition of proteolysis (Western blot) (CMV protease [5]; 10 μM): only slightly inhibited
inhibition of cleavage (Western blot) (CMV protease [5]; 100 μM): inhibits the cleavage almost completely
inhibition of substrate cleavage (Western blot) (CMV protease [5]; concentration series 100 μM, 30 μM, 10 μM): prevented substrate cleavage in a dose-dependent manner
EC50 (CMV protease [1]): 31 µM
CMV protease inhibition judged from OD600 versus cells expressing inactive protease (CMV protease [1]; 100 μM): almost completely inhibited
effect of increasing concentrations on cell proliferation (CMV protease [1]): dose-dependent increase of cell proliferation

B1: human cytomegalovirus (CMV) protease, amino acids 1-256 of the 75 kDa precursor (protein)
chain: MTMDEQQSQAVAPVYVGGFLARYDQSPDEAELLLPRDVVEHWLHAQGQGQPSLSVALPLNINHDDTAVVGHVAAMQSVRDGLFCLGCVTSPRFLEIVRRASEKSELVSRGPVSPLQPDKVVEFLSGSYAGLSLSSRRCDDVEAATSLSGSETTPFKHVALCSVGRRRGTLAVYGRDPEWVTQRFPDLTAADRDGLRAQWQRCGSTAVDASGDPFRSDSYGLLGNSVDALYIRERLPKLRYDKQLVGVTERESYVKA
anti-HA Western blot of yeast extracts, full-length 33 kDa substrate band (FIG. 3C, lane 2) [6]: Co-expression of active CMV protease (lane 2) causes disappearance of the full-length substrate
anti-HA Western blot, 33 kDa band (FIG. 5B, lane 2) [6]: co-expressing the active protease instead of the inactive version causes disappearance of the 33 kDa band
anti-HA Western blot of yeast extracts, full-length substrate band (FIG. 3C, lane 4) [7]: active protease has no effect on the point-mutated Trp1(194)-M (A→E) substrate, as the band is also present

B2: inactive version of the CMV protease harbouring the S(132) A mutation at the catalytic site (protein)
chain: MTMDEQQSQAVAPVYVGGFLARYDQSPDEAELLLPRDVVEHWLHAQGQGQPSLSVALPLNINHDDTAVVGHVAAMQSVRDGLFCLGCVTSPRFLEIVRRASEKSELVSRGPVSPLQPDKVVEFLSGSYAGLALSSRRCDDVEAATSLSGSETTPFKHVALCSVGRRRGTLAVYGRDPEWVTQRFPDLTAADRDGLRAQWQRCGSTAVDASGDPFRSDSYGLLGNSVDALYIRERLPKLRYDKQLVGVTERESYVKA
anti-HA Western blot of yeast extracts, full-length 33 kDa substrate band (FIG. 3C, lane 3) [6]: the inactive CMV protease does not cleave the Trp1(194)-M substrate (since the full-length substrate band does not disappear)
anti-HA Western blot, 33 kDa band (FIG. 5B, lane 1) [6]: A 33 kDa band corresponds to the full-length Trp1(194)-M substrate upon co-expression with inactive CMV protease

— patent US20090029369A1, “GENETIC SELECTION SYSTEM TO IDENTIFY PROTEASES, PROTEASE SUBSTRATES AND PROTEASE INHIBITORS” (priority 2005, published 2009)
